ChEMBL document CHEMBL3992544, “Novel 6-methoxycarbonyl indolinones bearing a pyrrole Mannich base moiety as angiokinase inhibitors” (Bioorg Med Chem, 2017)

Columns and labels:
[1] = molecular target: Platelet-derived growth factor receptor beta (Homo sapiens, UniProt P09619); assay: Inhibition of human N-terminal GST-tagged PDGFRbeta cytoplasmic domain (557 to 1106 residues) expressed in baculovirus expression system preincubated for 10 mins followed by FAM-labeled peptide substrate addition measured after 1 hr by mobility shift assay
Chain of Platelet-derived growth factor receptor beta (P09619 whole entry, the tested form may be a part): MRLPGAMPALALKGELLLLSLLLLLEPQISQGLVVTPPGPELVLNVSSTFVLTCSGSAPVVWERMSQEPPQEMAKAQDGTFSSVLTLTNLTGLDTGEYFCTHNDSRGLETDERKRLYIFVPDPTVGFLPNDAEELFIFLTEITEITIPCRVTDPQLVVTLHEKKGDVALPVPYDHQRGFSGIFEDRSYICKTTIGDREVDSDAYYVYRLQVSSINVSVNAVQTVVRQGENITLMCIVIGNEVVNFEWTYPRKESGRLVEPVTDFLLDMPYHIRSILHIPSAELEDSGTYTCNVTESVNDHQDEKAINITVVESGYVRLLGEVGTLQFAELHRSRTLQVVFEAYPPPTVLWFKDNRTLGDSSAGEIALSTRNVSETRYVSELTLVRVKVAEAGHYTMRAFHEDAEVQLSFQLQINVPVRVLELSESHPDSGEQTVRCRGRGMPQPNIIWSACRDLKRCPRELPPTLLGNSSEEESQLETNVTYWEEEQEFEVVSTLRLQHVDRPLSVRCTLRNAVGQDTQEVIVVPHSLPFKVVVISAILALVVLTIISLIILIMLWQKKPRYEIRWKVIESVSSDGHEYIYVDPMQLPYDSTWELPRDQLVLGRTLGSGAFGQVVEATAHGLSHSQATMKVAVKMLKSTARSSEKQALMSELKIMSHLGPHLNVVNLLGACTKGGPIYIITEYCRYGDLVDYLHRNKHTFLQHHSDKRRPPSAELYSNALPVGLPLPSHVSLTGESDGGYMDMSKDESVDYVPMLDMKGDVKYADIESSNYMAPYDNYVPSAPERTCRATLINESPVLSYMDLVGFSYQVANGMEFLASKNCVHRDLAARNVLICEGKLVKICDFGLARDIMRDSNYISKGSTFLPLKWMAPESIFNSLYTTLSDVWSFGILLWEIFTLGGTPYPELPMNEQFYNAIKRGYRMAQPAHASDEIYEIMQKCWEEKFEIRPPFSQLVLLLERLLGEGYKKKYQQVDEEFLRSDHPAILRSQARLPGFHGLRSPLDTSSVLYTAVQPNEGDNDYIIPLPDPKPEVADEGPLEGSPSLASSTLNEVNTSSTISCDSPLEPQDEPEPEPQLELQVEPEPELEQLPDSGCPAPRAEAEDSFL

HT-29 [2] = assay: Antiproliferative activity against human HT-29 cells after 72 hrs by MTT assay; conditions: HT-29, 72 h
HeLa = assay: Antiproliferative activity against human HeLa cells after 72 hrs by MTT assay
SK-OV-3 = assay: Antiproliferative activity against human SKOV3 cells after 72 hrs by MTT assay; conditions: SK-OV-3, 72 h
HT-29 [3] = assay: Induction of apoptosis in human HT-29 cells after 48 hrs by acridine orange/ethidium bromide staining based confocal laser scanning microscopic method; assay type: functional, cell-based
[4] = molecular target: Vascular endothelial growth factor receptor 1 (Homo sapiens, UniProt P17948); assay: Inhibition of recombinant human GST-tagged VEGFR1 cytoplasmic domain (781 to 1338 residues) expressed in baculovirus expression system preincubated for 10 mins followed by FAM-labeled peptide substrate addition measured after 1 hr by mobility shift assay
Chain of Vascular endothelial growth factor receptor 1 (P17948 whole entry, the tested form may be a part): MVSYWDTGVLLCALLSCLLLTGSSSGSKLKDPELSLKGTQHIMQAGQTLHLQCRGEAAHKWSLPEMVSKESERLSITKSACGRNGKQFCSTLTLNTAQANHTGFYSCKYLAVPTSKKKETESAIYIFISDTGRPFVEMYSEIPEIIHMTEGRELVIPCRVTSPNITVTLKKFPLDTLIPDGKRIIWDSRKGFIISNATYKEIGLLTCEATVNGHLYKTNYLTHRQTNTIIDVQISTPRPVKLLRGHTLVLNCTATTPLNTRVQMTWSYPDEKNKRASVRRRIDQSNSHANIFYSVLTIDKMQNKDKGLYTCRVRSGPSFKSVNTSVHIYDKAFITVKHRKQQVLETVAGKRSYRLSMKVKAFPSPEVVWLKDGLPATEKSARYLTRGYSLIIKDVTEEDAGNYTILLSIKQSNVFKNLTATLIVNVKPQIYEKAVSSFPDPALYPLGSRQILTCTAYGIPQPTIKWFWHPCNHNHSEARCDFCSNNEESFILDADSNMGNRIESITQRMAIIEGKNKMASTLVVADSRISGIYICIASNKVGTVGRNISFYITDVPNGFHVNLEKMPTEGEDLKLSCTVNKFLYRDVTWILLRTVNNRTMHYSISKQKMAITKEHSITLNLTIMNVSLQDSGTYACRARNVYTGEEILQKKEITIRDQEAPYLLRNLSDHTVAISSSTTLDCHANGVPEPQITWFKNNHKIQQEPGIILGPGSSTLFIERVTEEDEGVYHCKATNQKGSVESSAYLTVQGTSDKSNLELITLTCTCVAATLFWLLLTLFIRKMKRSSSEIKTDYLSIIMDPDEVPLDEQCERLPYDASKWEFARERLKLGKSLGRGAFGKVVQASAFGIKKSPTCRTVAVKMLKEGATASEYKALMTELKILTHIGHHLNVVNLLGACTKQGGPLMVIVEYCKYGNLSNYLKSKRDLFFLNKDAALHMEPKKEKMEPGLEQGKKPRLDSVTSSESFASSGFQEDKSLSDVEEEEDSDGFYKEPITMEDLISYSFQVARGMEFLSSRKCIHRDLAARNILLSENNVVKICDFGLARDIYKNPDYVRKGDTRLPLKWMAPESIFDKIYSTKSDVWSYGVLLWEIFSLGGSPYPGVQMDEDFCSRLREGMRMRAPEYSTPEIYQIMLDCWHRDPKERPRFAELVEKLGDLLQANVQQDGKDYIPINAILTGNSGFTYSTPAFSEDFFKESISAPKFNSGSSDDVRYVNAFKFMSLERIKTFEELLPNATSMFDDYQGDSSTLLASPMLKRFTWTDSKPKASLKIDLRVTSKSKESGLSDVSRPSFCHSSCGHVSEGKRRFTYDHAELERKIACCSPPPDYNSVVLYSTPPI

[5] = molecular target: Fibroblast growth factor receptor 1 (Homo sapiens, UniProt P11362); assay: Inhibition of recombinant human GST-tagged FGFR1 cytoplasmic domain (398 to 822 residues) expressed in baculovirus expression system preincubated for 10 mins followed by FAM-labeled peptide substrate addition measured after 1 hr by mobility shift assay
Chain of Fibroblast growth factor receptor 1 (P11362 whole entry, the tested form may be a part): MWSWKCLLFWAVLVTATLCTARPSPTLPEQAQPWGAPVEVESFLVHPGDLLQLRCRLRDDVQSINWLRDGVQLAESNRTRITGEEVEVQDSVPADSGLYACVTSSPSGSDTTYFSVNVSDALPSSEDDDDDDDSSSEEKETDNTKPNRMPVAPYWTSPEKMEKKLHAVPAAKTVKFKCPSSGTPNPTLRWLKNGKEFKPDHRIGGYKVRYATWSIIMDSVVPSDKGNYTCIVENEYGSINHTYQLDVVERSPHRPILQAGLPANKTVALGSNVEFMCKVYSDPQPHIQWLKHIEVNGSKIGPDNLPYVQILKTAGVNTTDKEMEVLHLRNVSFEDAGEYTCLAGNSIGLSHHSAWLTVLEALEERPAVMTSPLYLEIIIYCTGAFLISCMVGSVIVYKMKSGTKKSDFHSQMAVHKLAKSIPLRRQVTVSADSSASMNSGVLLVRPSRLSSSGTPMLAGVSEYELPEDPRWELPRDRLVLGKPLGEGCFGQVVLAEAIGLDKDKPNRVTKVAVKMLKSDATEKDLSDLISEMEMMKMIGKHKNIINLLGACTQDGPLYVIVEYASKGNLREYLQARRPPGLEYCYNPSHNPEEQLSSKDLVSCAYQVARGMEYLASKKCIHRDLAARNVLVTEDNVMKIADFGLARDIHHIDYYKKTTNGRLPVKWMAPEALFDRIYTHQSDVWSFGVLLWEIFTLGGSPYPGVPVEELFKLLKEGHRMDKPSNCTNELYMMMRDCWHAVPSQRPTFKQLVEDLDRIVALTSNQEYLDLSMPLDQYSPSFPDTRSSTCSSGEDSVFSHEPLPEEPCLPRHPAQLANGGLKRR

Compound | IC50 [1] [µM] | IC50 (HT-29 [2]) [µM] | IC50 (HeLa) [µM] | IC50 (SK-OV-3) [µM] | also measured
COC(=O)c1ccc2c(c1)NC(=O)/C2=C(\Nc1ccc(-n2cccc2CN2CCN(C)CC2)cc1)c1ccccc1 | 0.0832 | 3.12 | 30.4 | 25.9 | –
COC(=O)c1ccc2c(c1)NC(=O)/C2=C(\Nc1ccc(-n2cccc2CN(C)C)cc1)c1ccccc1 | 0.0143 | 0.98 | 53.2 | 5.22 | Activity (HT-29 [3]): Dose-dependent effect; IC50 [4]: 0.0992 µM; IC50 [5]: > 0.5 µM
COC(=O)c1ccc2c(c1)NC(=O)/C2=C(\Nc1ccc(N(C)C(=O)CN2CCN(C)CC2)cc1)c1ccccc1 [NINTEDANIB] | – | 4.9 | 51.6 | 28.8 | –
COC(=O)c1ccc2c(c1)NC(=O)/C2=C(\Nc1ccc(Cn2cccc2CN2CCN(C)CC2)cc1)c1ccccc1 | 0.0678 | – | – | – | –
CCN(CC)Cc1cccn1-c1ccc(N/C(=C2\C(=O)Nc3cc(C(=O)OC)ccc32)c2ccccc2)cc1 | 0.0314 | – | – | – | –
COC(=O)c1ccc2c(c1)NC(=O)/C2=C(\Nc1ccc(Cn2cccc2CN(C)C)cc1)c1ccccc1 | 0.0298 | – | – | – | –

Now from value to molecule, other results behind:

IC50 [1] [µM] | IC50 (HT-29 [2]) [µM] | IC50 (HeLa) [µM] | IC50 (SK-OV-3) [µM] | Compound | also measured
0.0455 | – | – | – | COC(=O)c1ccc2c(c1)NC(=O)/C2=C(\Nc1ccc(-n2cccc2CN2CCCCC2)cc1)c1ccccc1 | –
0.0271 | – | – | – | COC(=O)c1ccc2c(c1)NC(=O)/C2=C(\Nc1ccc(-n2cccc2CN2CCCC2)cc1)c1ccccc1 | –
0.0652 | – | – | – | COC(=O)c1ccc2c(c1)NC(=O)/C2=C(\Nc1ccc(-n2cccc2CN2CCNCC2)cc1)c1ccccc1 | –
